Experimental data: ChEMBL document CHEMBL1132748, “Synthesis and antiviral activities of N-9-oxypurine 1,3-dioxolane and 1,3-oxathiolane nucleosides” (2000)
Calls of active or inactive are those of the source. No cut-off for these calls is given here.

Key:
Human betaherpesvirus 5 = experiment: Anti-herpetic activity and cytotoxicity evaluated against HCMV-1 (WFI strain) in plaque reduction assay in vero cells and Flow 2002 (human fibroblast) cell; inactive; assay type: functional, organism-based
[1] = test system: Human immunodeficiency virus; experiment: Antiviral activity was assessed against HIV in MT-4 (human T-helper) cells at a concentration up to 100 ug/mL; inactive; assay type: functional, organism-based
[2] = test system: Human immunodeficiency virus; experiment: Cytotoxicity of compound was assessed against HIV in MT-4 (human T-helper) cells; inactive; assay type: functional
Human alphaherpesvirus 2 [3] = experiment: Anti-herpetic activity and cytotoxicity was evaluated against HSV-2 (186 strain) in plaque reduction assay in vero cells and Flow 2002 (human fibroblast) cell; inactive; assay type: functional, organism-based
Hepatitis B virus = experiment: Antiviral activity was assessed against HBV in hepatoma cell line 2.2.15; inactive; assay type: functional, organism-based; settings: HepG2 2.2.15
Human alphaherpesvirus 1 [4] = experiment: Anti-herpetic activity and cytotoxicity was evaluated against HSV-1 (KOS strain) in plaque reduction assay in vero cells and Flow 2002 (human fibroblast) cell; inactive; assay type: functional, organism-based
Homo sapiens = species on record: Homo sapiens; experiment: Cytotoxicity was assessed against in MT-4 (human T-helper) cells at a concentration up to 100 ug/mL; inactive; assay type: functional, cell-based
Human alphaherpesvirus 1 [5] = experiment: Anti-herpetic activity and cytotoxicity of compound was evaluated against HSV-1 (KOS strain) at concentration up to 100 ug/mL; inactive; assay type: functional, organism-based
Human alphaherpesvirus 2 [6] = experiment: Anti-herpetic activity and cytotoxicity of compound was evaluated against HSV-2 (186 strain) at concentration 100 ug/mL; inactive; assay type: functional, organism-based

Structure (SMILES): OCC1O[C@@H](On2cnc3c(O)ncnc32)CS1 (stereo not given in full)
- Activity (Human betaherpesvirus 5): inactive
- Activity [1]: inactive
- CD50 [2]: 10 µg/mL
- Activity (Human alphaherpesvirus 2 [3]): inactive
- Activity (Hepatitis B virus): inactive
- Activity (Human alphaherpesvirus 1 [4]): inactive

Structure (SMILES): COc1ncnc2c1ncn2O[C@H]1CSC(CO)O1 (stereo not given in full)
- Activity (Human betaherpesvirus 5): inactive
- Activity [1]: inactive
- Activity (Homo sapiens): inactive
- Activity (Human alphaherpesvirus 2 [3]): inactive
- Activity (Hepatitis B virus): inactive
- Activity (Human alphaherpesvirus 1 [4]): inactive

Structure (SMILES): OCC1OC[C@H](On2cnc3c(O)ncnc32)O1 (stereo not given in full)
- Activity (Human betaherpesvirus 5): inactive
- Activity [1]: inactive
- Activity (Homo sapiens): inactive
- Activity (Human alphaherpesvirus 2 [3]): inactive
- Activity (Hepatitis B virus): inactive
- Activity (Human alphaherpesvirus 1 [4]): inactive

Structure (SMILES): COc1ncnc2c1ncn2O[C@@H]1COC(CO)O1 (stereo not given in full)
- Activity (Human betaherpesvirus 5): inactive
- Activity [1]: inactive
- Activity (Homo sapiens): inactive
- Activity (Human alphaherpesvirus 2 [3]): inactive
- Activity (Hepatitis B virus): inactive
- Activity (Human alphaherpesvirus 1 [4]): inactive

Structure (SMILES): COc1ncnc2c1ncn2O[C@H]1COC(CO)O1 (stereo not given in full)
- Activity (Human betaherpesvirus 5): inactive
- Activity [1]: inactive
- Activity (Homo sapiens): inactive
- Activity (Human alphaherpesvirus 2 [3]): inactive
- Activity (Hepatitis B virus): inactive
- Activity (Human alphaherpesvirus 1 [4]): inactive

Structure (SMILES): OCC1O[C@H](On2cnc3c(Cl)ncnc32)CS1 (stereo not given in full)
- Activity (Human betaherpesvirus 5): inactive
- Activity [1]: inactive
- Activity (Homo sapiens): inactive
- Activity (Human alphaherpesvirus 2 [3]): inactive
- Activity (Hepatitis B virus): inactive
- Activity (Human alphaherpesvirus 1 [4]): inactive

Structure (SMILES): OCC1OC[C@@H](On2cnc3c(Cl)ncnc32)O1 (stereo not given in full)
- Activity (Human betaherpesvirus 5): inactive
- Activity [1]: inactive
- Activity (Homo sapiens): inactive
- Activity (Human alphaherpesvirus 2 [3]): inactive
- Activity (Hepatitis B virus): inactive
- Activity (Human alphaherpesvirus 1 [4]): inactive

Structure (SMILES): Nc1ncnc2c1ncn2O[C@@H]1CSC(CO)O1 (stereo not given in full)
- Activity (Human betaherpesvirus 5): inactive
- Activity [1]: inactive
- Activity (Homo sapiens): inactive
- Activity (Human alphaherpesvirus 2 [3]): inactive
- Activity (Hepatitis B virus): inactive
- Activity (Human alphaherpesvirus 1 [4]): inactive

Structure (SMILES): Nc1ncnc2c1ncn2O[C@H]1CSC(CO)O1 (stereo not given in full)
- Activity (Human betaherpesvirus 5): inactive
- Activity [1]: inactive
- Activity (Homo sapiens): inactive
- Activity (Human alphaherpesvirus 2 [3]): inactive
- Activity (Hepatitis B virus): inactive
- Activity (Human alphaherpesvirus 1 [4]): inactive

Structure (SMILES): Nc1ncnc2c1ncn2O[C@@H]1COC(CO)O1 (stereo not given in full)
- Activity (Human betaherpesvirus 5): inactive
- Activity [1]: inactive
- Activity (Homo sapiens): inactive
- Activity (Human alphaherpesvirus 2 [3]): inactive
- Activity (Hepatitis B virus): inactive
- Activity (Human alphaherpesvirus 1 [4]): inactive

Structure (SMILES): OCC1OC[C@H](On2cnc3c(Cl)ncnc32)O1 (stereo not given in full)
- Activity (Human betaherpesvirus 5): inactive
- Activity [1]: inactive
- Activity (Homo sapiens): inactive
- Activity (Human alphaherpesvirus 2 [3]): inactive
- Activity (Hepatitis B virus): inactive
- Activity (Human alphaherpesvirus 1 [4]): inactive

Structure (SMILES): OCC1O[C@@H](On2cnc3c(Cl)ncnc32)CS1 (stereo not given in full)
- Activity (Human betaherpesvirus 5): inactive
- Activity [1]: inactive
- Activity (Homo sapiens): inactive
- Activity (Human alphaherpesvirus 2 [3]): inactive
- Activity (Hepatitis B virus): inactive
- Activity (Human alphaherpesvirus 1 [4]): inactive

Structure (SMILES): Nc1nc(O)c2ncn(O[C@H]3COC(CO)O3)c2n1 (stereo not given in full)
- Activity (Human alphaherpesvirus 1 [5]): inactive
- Activity (Human alphaherpesvirus 2 [6]): inactive

Structure (SMILES): Nc1nc(O)c2ncn(O[C@@H]3COC(CO)O3)c2n1 (stereo not given in full)
- Activity (Human alphaherpesvirus 1 [5]): inactive
- Activity (Human alphaherpesvirus 2 [6]): inactive

Structure (SMILES): COc1ncnc2c1ncn2O[C@@H]1CSC(CO)O1 (stereo not given in full)
- Activity (Human betaherpesvirus 5): inactive
- Activity [1]: inactive
- Activity (Homo sapiens): inactive
- Activity (Human alphaherpesvirus 2 [3]): inactive
- Activity (Hepatitis B virus): inactive
- Activity (Human alphaherpesvirus 1 [4]): inactive

Structure (SMILES): Nc1ncnc2c1ncn2O[C@H]1COC(CO)O1 (stereo not given in full)
- Activity (Human betaherpesvirus 5): inactive
- Activity [1]: inactive
- Activity (Homo sapiens): inactive
- Activity (Human alphaherpesvirus 2 [3]): inactive
- Activity (Hepatitis B virus): inactive
- Activity (Human alphaherpesvirus 1 [4]): inactive

Structure (SMILES): OCC1O[C@H](On2cnc3c(O)ncnc32)CS1 (stereo not given in full)
- Activity (Human betaherpesvirus 5): inactive
- Activity [1]: inactive
- Activity (Homo sapiens): inactive
- Activity (Human alphaherpesvirus 2 [3]): inactive
- Activity (Hepatitis B virus): inactive
- Activity (Human alphaherpesvirus 1 [4]): inactive

Structure (SMILES): OCC1OC[C@@H](On2cnc3c(O)ncnc32)O1 (stereo not given in full)
- Activity (Human betaherpesvirus 5): inactive
- Activity [1]: inactive
- Activity (Homo sapiens): inactive
- Activity (Human alphaherpesvirus 2 [3]): inactive
- Activity (Hepatitis B virus): inactive
- Activity (Human alphaherpesvirus 1 [4]): inactive
